Measured values published in patent US20250108100A1, “C-TERMINAL FRAGMENT OF APOLIPOPROTEIN E AND APPLICATION THEREOF IN INHIBITING y-SECRETASE ACTIVITY” (SYNPHATEC (SHANGHAI) BIOPHARMACEUTICAL TECHNOLOGY CO., LTD., priority 2022, published 2025).
“Also recorded” adds a separate entry of the source.

How the values were obtained:
[1] = tested on: HEK 293T cells expressing APP; experiment: APP-expressing HEK 293T cells co-incubated with culture medium containing secreted ApoE2 or ApoE CT: α-CTF; format: cell-based, human; details: vs GFP control
Method: • a) A plasmid expressing the target protein in mammalian cells was constructed, and the protein expression promoter is CAG. • b) The target protein was expressed in HEK 293T cell line. Cells were subcultured one day before transfection, and transfection was performed when the degree of cell adhesion reached 70%-80%. The transfection reagent was lipofectamine2000 (ThermoFisher). • c) 4-6 hours post transfection, the medium were replaced with fresh cell culture medium. • d) 36-48 hours post transfection, the cells were lysed (10% 1M tris-HCl (pH=6.8), 4% SDS, 20% glycerol, 0.01% bromophenol blue), and the protein samples were collected and used for Western blot or stored in a −80° C. freezer. • e) Polyacrylamide gel electrophoresis. Before protein loading, the protein was boiled at 98° C. for 10 min, and then centrifuged at 12000 rpm for 10 min. Electrophoresis: 80V for the upper stacking gel; 120V for the lower separating gel. • f) Protein transfer. […]

[2] = tested on: human APP and β-secretase co-expressed in HEK 293T cells; experiment: HEK 293T cells co-expressing APP and β-secretase (BACE1): Aβ ELISA and β-CTF Western blot; format: cell-based; details: APP and β-secretase co-expressed, ELISA, vs GFP control
Method: The experiment was performed according to the standard procedure in the ELISA analysis kit of Invitrogen Company. • a) The target protein was expressed in HEK 293T cell line. Cells were subcultured one day before transfection, and transfection was performed when the degree of cell adhesion reached 70%-80%. The transfection reagent was lipofectamine2000 (ThermoFisher). • b) 4-6 hours post transfection, medium were replaced with fresh cell culture medium. • c) 36-48 hours post transfection, the cell culture medium was collected, and then the ELISA process was performed or the cell culture medium was frozen in a −80° C. refrigerator. • d) 50 μl of standard samples and experimental samples were added to each well of the 96-well plate. • e) 50 μl of human-derived Aβ40 or Aβ42 or mouse-derived Aβ40 detection antibody was added to each well of the 96-well plate. • f) The above samples were shaken gently and placed at room temperature for 3 hours. • g) The liquid in the well were removed, and the plate was washed 4 times with 1× wash buffer. • h) 100 μl of the buffer containing 1× anti-Rabbit IgG HRP was added. • i) The plate was shaken gently and placed at room temperature for […]. • j) The liquid in the well were removed, and the well was washed 4 times with 1× wash buffer. • k) 100 μl of Stabilized Chromogen was added to each well, and the plate was placed in the dark for 30 minutes at room temperature. • l) 100 μl of Stop Solution was added to each well. • m) The absorbance at 450 nm was measured with a microplate reader. 2.4 qRT-PCR
48 hours after transfection of HEK 293T cells and N2A cells, or 4.5 days after lentivirus infection of neurons, media and lysates were collected. Aβ40 and Aβ42 in the culture medium and cell lysates were detected by an Aβ ELISA kit as indicated in the protocol. (Invitrogen Technology; KHB3481 for human Aβ40, KHB3441 for human Aβ42 and KMB3481 for mouse Aβ40).
Data were analyzed by GraphPad Prism software (v6) using unpaired, paired, or one-sample t-tests. Aβ40 and Aβ42 levels were normalized to the corresponding GFP controls. α-CTF levels were normalized to FL-APP and corresponding GFP controls. All data are represented as mean±SEM. Statistical significance was defined as p<0.05. One, two, three and four stars (*) in the graph indicate p-values <0.05, <0.01, <0.001 and <0.0001, respectively.

[3] = tested on: primary cultured mouse hippocampal or cortical neurons; experiment: Endogenous Aβ40 in primary cultured mouse cortical or hippocampal neurons (lentivirus, ELISA); format: cell-based; details: primary cultured mouse neurons; lentivirus; vs GFP control
Method: Primary cultured neurons were derived from the cortex or hippocampus of 16-day embryonic mice. The mouse cortex or hippocampus was obtained under a stereoscope, and was digested at 37° C. for 10 minutes with 20 U/ml papain (Worthington Company). After digestion, the neurons that exist in single-cell form were seeded with 100,000 neurons per well (24-well plate); the neurons were cultured in the neuron culture medium (Neurobasal medium; ThermoFisher Company) containing 2% B27 (ThermoFisher Company) and 1% penicillin/streptomycin; the fresh culture medium was changed once a week.
The experiment was performed according to the standard procedure in the ELISA analysis kit of Invitrogen Company. • a) The target protein was expressed in HEK 293T cell line. Cells were subcultured one day before transfection, and transfection was performed when the degree of cell adhesion reached 70%-80%. […]
48 hours after transfection of HEK 293T cells and N2A cells, or 4.5 days after lentivirus infection of neurons, media and lysates were collected. Aβ40 and Aβ42 in the culture medium and cell lysates were detected by an Aβ ELISA kit as indicated in the protocol. […]

## ApoE2: human apolipoprotein E2, full-length 299 amino acid residues, SEQ ID NO: 12
[1]
  α-CTF produced by APP in cells co-incubated with protein in culture medium: does not significantly alter α-CTF levels; also recorded: does not change the α-CTF; also recorded: does not alter the α-CTF
[2]
  production of Aβ40: significantly reduces production of Aβ40; also recorded: is reduced; also recorded: significantly reduced Aβ40 levels
[3]
  endogenously produced Aβ40: can reduce endogenously produced Aβ40; also recorded: could reduce the endogenous Aβ40
